Assay: Absorption maximum after colour development in a photographic silver halide layer according to Use Example I
Assay type: physicochemical
Conditions: pyrazolone coupling agents
In short: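 Coupling agent dispersed in tricresyl phosphate with gelatine at pH 6.5, mixed with silver bromide emulsion and hardener, cast on glass plates and dried at 32° C. Strips exposed to 500 Lux/cm^2 under a step wedge for 2 seconds, then processed at 24° C; absorption maximum read after colour development.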

Row | Structure (SMILES) | Abs.max., first of two maxima (subsidiary maximum) | Abs.max., second of two maxima (absorption maximum)
1 | CCOP(=O)(CCCOc1ccc(NC2=NN(c3ccccc3)C(=O)C2)cc1)OCC [(405)] | 428 nm | 526 nm
2 | CCOP(=O)(CCCOc1ccc(NC2=NN(c3cccc(Cl)c3)C(=O)C2)cc1)OCC [(406)] | 425 nm | 530 nm
3 | CCOP(=O)(CCCc1ccc(NC2=NN(c3ccccc3)C(=O)C2)cc1)OCC [(407)] | 429 nm | 527 nm
4 | CCOP(=O)(CCCc1ccc(NC2=NN(c3c(Cl)cc(Cl)cc3Cl)C(=O)C2)cc1)OCC [(408)] | 426 nm | 530 nm
5 | CCCCOP(=O)(CCCOc1cccc(NC2=NN(c3c(Cl)cc(Cl)cc3Cl)C(=O)C2)c1)OCCCC [(409)] | 426 nm | 530 nm
6 | CCOP(=O)(CCCc1ccc(NC2=NN(c3cccc(Cl)c3)C(=O)C2)cc1)OCC [(410)] | 438 nm | 532 nm
7 | CCCCOP(=O)(CCCOc1cccc(NC2=NN(c3cccc(Cl)c3)C(=O)C2)c1)OCCCC [(411)] | 428 nm | 532 nm
8 | CCCCOP(=O)(CCCOc1cccc(NC2=NN(c3ccccc3)C(=O)C2)c1)OCCCC [(412)] | 430 nm | 528 nm
9 | CCCCC(CC)COP(=O)(CCCOc1cccc(NC2=NN(c3cccc(Cl)c3)C(=O)C2)c1)OCC(CC)CCCC (centres unmarked) [(413)] | 428 nm | 533 nm
10 | CCOP(=O)(CCCOc1cccc(C(=O)Nc2cccc(NC3=NN(c4ccccc4)C(=O)C3)c2)c1)OCC [(414)] | 430 nm | 530 nm
11 | CCOP(=O)(CCCOc1cccc(C(=O)Nc2cccc(NC3=NN(c4c(Cl)cc(Cl)cc4Cl)C(=O)C3)c2)c1)OCC [(415)] | 426 nm | 532 nm
12 | CCOP(=O)(CCCOc1cccc(C(=O)Nc2ccc(NC3=NN(c4ccccc4)C(=O)C3)cc2)c1)OCC [(416)] | 426 nm | 528 nm
13 | CCCCOP(=O)(CCCOc1cccc(C(=O)Nc2ccc(NC3=NN(c4ccccc4)C(=O)C3)cc2)c1)OCCCC [(417)] | 428 nm | 530 nm
14 | CCCCOP(=O)(CCCOc1cccc(C(=O)Nc2cccc(NC3=NN(c4ccccc4)C(=O)C3)c2)c1)OCCCC [(418)] | 430 nm | 530 nm
15 | CCCCOP(=O)(CCCOc1cccc(C(=O)Nc2cccc(NC3=NN(c4c(Cl)cc(Cl)cc4Cl)C(=O)C3)c2)c1)OCCCC [(419)] | 427 nm | 532 nm
16 | CCCCC(CC)COP(=O)(CCCOc1cccc(C(=O)Nc2ccc(NC3=NN(c4ccccc4)C(=O)C3)cc2)c1)OCC(CC)CCCC (centres unmarked) [(420)] | 428 nm | 529 nm
17 | CCCCC(CC)COP(=O)(CCCOc1cccc(C(=O)Nc2cccc(NC3=NN(c4ccccc4)C(=O)C3)c2)c1)OCC(CC)CCCC (centres unmarked) [(421)] | 430 nm | 528 nm
18 | CCCCC(CC)COP(=O)(CCCOc1cccc(C(=O)Nc2cccc(NC3=NN(c4c(Cl)cc(Cl)cc4Cl)C(=O)C3)c2)c1)OCC(CC)CCCC (centres unmarked) [(422)] | 426 nm | 530 nm
19 | CCCCOP(=O)(CCCOc1cc(OCCCP(=O)(OCCCC)OCCCC)cc(C(=O)Nc2cccc(NC3=NN(c4ccccc4)C(=O)C3)c2)c1)OCCCC [(423)] | 430 nm | 530 nm
